# Patent US12064517B1, “Polymer nanoparticle” (priority 2018, dated 2024)
# How the values were obtained:
# [1] = Encapsulation of purpurin dye in nanogel, aqueous dispersion; assay type: physicochemical; details: 2 mg purpurin, 6 mg PEG diacrylate (MW 1000) β-cyclodextrin crosslinked nanogel, 3 ml di water, stirring overnight
# Description: 6 mg of PEG diacrylate (MW 1000) β-cyclodextrin crosslinked nanogel was dispersed in 3 ml of di water, 2 mg of purpurin solid was added to the solution. The resulted mixture was stirring overnight.
# [2] = native cyclodextrin; cited from earlier work
# [3] = system: Human Lung Carcinoma A549; test: Cell Titer-Glo Luminescent Cell Viability assay, antiproliferative activity, A549; assay type: cell-based; details: A549 cell line, 72 hours culture with test article, highest concentration 0.4 μM
# Description: (§1) The antiproliferative activity was studied against human tumor cell lines, Human Lung Carcinoma A549 and Human Mammary Gland Adenocarcinoma MCF-7 with Promega's Cell Tier-Glo® Luminescent Cell Viability assay.
# (§2) A preliminary cell titration was conducted to select the proper seeding density for the growth of these lines for the relevant time frames.
# (§3) The tumor cells were seeded in a volume of 90 μL/well of growth medium into a white polystyrene 96-well microculture plate (Corning® Costar® 96-well flat bottom plate, Cat #3917). After 24 hours of incubation in a humidified incubator at 37° C., in an atmosphere of 5% CO2 and 95% air, 10 μL of 10 serially diluted test agent in growth medium were added to each well in duplicate (10 points dose response, highest concentration 0.4 μM, with a 1:2 dilution plus untreated control). After 72 hours of culture with test article, in a humidified incubator at the atmosphere of 5% CO2 and 95% air, the plate cells and Cell Titer-Glo® (Promega G7571) reagents were brought to room temperature to equilibrate for 30 minutes. 100 μL of Cell Titer-Glo® (Promega G7571) reagent was added to each well. The plates were shaken for two minutes and then left to equilibrate for ten minutes prior to reading luminescence on the Biotech Synergy II microplate reader. The IC50 results are listed in the following tables and are shown in graphs in FIG. 5 and FIG. 6.
# [4] = system: Human Mammary Gland Adenocarcinoma MCF-7; test: Cell Titer-Glo Luminescent Cell Viability assay, antiproliferative activity, MCF-7; assay type: cell-based; details: MCF7, MCF-7 cell line, 72 hours culture with test article, highest concentration 0.4 μM
# Description: as §1, §2, §3
smiles,measurement,setting,value
O=C1c2ccccc2C(=O)c2c(O)c(O)cc(O)c21 [purpurin],Aqueous dispersion of purpurin with nanogel,[1],dispersed in the aqueous as a transparent colloidal solution
OC[C@H]1O[C@@H]2O[C@H]3[C@H](O)[C@@H](O)[C@@H](O[C@H]4[C@H](O)[C@@H](O)[C@@H](O[C@H]5[C@H](O)[C@@H](O)[C@@H](O[C@H]6[C@H](O)[C@@H](O)[C@@H](O[C@H]7[C@H](O)[C@@H](O)[C@@H](O[C@H]1[C@H](O)[C@H]2O)O[C@@H]7CO)O[C@@H]6CO)O[C@@H]5CO)O[C@@H]4CO)O[C@@H]3CO [α-cyclodextrin],solubility,[2],129.5 g/kg
"CC(=O)O[C@H]1C(=O)[C@@]2(C)[C@H]([C@H](OC(=O)c3ccccc3)[C@]3(O)C[C@H](OC(=O)[C@H](O)[C@@H](NC(=O)c4ccccc4)c4ccccc4)C(C)=C1C3(C)C)[C@]1(OC(C)=O)CO[C@@H]1C[C@@H]2O [Paclitaxel Control, paclitaxel]",IC50,[3],5.98 nM
same,IC50,[4],1.06 nM
